Data on six compounds can be found in PMC12136037, “Type II kinase inhibitors that target Parkinson’s disease–associated LRRK2” (Science Advances, 2025).

Common to all, as to test: DSF 100 kinase selectivity screen;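 also: compound tested at 20 µM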
Common to all, as to format: binding

The target of assay [1] is T1, ~100 representative kinases (Homo sapiens, UniProt Q9UPE1).
T1 construct: Recombinant protein kinase domains with a concentration of 2 μM
As to conditions: Protein SRPK3; DSF; average of three replicates. In outline: (§1)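 Each kinase domain, at 2 μM, is mixed with 20 μM test compound and SYPRO Orange in Hepes (20 mM, pH 7.5) with 500 mM NaCl. Temperature is then raised at 3°C/min and fluorescence-monitored unfolding yields the melting temperature change, ΔTm in degrees Celsius.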

The target in assay [2] is T2, ~100 representative kinases (Homo sapiens, UniProt O14936).
T2 construct: Recombinant protein kinase domains with a concentration of 2 μM
T2 sequence (O14936 1-926): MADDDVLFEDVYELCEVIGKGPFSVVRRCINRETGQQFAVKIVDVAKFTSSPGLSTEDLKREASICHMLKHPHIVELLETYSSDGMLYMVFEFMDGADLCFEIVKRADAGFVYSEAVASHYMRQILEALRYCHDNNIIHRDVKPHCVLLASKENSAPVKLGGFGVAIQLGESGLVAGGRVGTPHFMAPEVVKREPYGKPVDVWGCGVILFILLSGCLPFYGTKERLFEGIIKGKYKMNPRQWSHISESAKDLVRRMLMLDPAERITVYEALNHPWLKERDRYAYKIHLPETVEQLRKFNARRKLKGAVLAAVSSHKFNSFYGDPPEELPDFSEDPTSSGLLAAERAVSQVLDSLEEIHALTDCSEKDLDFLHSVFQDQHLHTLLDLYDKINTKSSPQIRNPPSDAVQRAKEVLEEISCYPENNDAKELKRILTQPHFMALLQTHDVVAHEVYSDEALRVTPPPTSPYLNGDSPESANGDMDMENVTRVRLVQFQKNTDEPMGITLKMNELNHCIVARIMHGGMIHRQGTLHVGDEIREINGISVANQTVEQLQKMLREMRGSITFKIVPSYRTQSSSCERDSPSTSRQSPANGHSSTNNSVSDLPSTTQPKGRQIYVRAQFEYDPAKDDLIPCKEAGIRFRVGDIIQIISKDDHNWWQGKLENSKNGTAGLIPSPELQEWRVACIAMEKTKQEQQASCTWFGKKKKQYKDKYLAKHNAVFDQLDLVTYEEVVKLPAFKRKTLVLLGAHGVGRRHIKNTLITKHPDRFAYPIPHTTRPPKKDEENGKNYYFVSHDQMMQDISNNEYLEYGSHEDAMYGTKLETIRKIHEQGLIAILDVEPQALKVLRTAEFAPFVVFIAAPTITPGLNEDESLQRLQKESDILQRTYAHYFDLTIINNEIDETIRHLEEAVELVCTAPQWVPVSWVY
As to conditions: Protein CASK; average of three replicates. An outline of the steps:
as §1

Assay [3] deals with T3, ~100 representative kinases (Homo sapiens, UniProt P33981).
T3 construct: Recombinant protein kinase domains with a concentration of 2 μM
T3 sequence (P33981 1-857): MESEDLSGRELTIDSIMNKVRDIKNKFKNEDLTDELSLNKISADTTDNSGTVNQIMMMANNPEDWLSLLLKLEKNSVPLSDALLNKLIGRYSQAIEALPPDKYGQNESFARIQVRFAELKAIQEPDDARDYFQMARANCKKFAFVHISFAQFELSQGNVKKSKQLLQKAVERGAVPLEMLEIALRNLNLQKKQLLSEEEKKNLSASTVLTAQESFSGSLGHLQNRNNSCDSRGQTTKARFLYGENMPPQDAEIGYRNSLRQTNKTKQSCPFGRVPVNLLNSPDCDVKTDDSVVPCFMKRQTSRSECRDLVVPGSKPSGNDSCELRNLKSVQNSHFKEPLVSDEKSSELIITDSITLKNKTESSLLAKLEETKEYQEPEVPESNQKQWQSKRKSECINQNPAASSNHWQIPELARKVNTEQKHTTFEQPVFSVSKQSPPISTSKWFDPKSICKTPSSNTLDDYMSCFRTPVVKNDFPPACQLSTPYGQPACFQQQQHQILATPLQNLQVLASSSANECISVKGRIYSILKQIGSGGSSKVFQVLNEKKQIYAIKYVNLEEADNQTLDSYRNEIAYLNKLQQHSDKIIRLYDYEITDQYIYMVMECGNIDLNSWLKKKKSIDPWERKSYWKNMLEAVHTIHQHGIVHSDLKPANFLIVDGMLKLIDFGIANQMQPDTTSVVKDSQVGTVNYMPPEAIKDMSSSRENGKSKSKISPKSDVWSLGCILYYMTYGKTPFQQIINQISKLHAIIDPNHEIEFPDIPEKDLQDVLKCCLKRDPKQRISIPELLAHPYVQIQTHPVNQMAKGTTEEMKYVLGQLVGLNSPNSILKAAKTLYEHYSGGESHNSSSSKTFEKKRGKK
Particulars: Protein TTK; DSF; average of three replicates. In outline: as §1

Molecules are shown by their SMILES.

T1 sequence (Q9UPE1 whole entry, the tested form may be a part): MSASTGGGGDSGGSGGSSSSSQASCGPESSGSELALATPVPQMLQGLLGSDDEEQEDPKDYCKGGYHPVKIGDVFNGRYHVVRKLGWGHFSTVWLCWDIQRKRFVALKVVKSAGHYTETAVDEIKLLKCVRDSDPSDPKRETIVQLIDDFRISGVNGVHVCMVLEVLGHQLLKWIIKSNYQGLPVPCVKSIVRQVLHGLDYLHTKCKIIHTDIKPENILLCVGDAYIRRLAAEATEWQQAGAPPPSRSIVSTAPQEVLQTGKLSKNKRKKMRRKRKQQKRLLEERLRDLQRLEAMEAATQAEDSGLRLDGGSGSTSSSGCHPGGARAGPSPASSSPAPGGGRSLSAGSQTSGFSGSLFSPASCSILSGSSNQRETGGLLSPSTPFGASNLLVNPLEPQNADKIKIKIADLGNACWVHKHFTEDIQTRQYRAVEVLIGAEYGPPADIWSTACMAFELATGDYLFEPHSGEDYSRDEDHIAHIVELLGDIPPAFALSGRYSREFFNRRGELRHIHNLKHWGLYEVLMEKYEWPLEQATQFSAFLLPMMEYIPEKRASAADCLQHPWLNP

In the case of `CC(=O)N1CCN(c2nc(Cl)nc3[nH]cc(-c4cccc(NC(=O)Nc5cc(C(C)(C)C)nn5-c5ccc(C)cc5)c4)c23)CC1` [Compound 31], the values for the dTm in assay [1], in assay [2] and in assay [3] were 3.85 K, -2.83 K and 1.71 K, respectively.

With `CCSc1nc(NC)c2c(-c3cccc(NC(=O)Nc4cc(C(C)(C)C)nn4-c4ccc(C)cc4)c3)c[nH]c2n1` [Compound 32], the results for the dTm in assay [1], in assay [2] and in assay [3] were 1.35 K, -0.26 K and 6.59 K, respectively.

Turning to `COc1cc(C(=O)N2CCOCC2)c(F)cc1Nc1nc(N(C)C)c2c(Cl)c[nH]c2n1` [Compound 36], the dTm in assay [1] was 1.84 K; in assay [2], -0.72 K; in assay [3], 10.39 K.

As to `COc1cc(S(C)(=O)=O)ccc1Nc1nc(N(C)C)c2c(Cl)c[nH]c2n1` [Compound 37], the dTm in assay [1] is listed as 0.46 K; in assay [2], -0.21 K; in assay [3] it was 7.87 K.

Take `COc1cc2c(Oc3ccc(NC(=O)C4(C(=O)Nc5ccc(F)cc5)CC4)cc3F)ccnc2cc1OCCCN1CCOCC1` [Foretinib, reference compound]: the dTm in assay [1] was determined as 7.41 K; in assay [2], 0.53 K; in assay [3], 2.21 K.

Regarding `CNC(=O)c1cc(Oc2ccc(NC(=O)Nc3cc(C(C)(C)C)nn3-c3ccc4ncccc4c3)c(F)c2)ccn1` [Rebastinib, reference compound], the results for the dTm in assay [1], in assay [2] and in assay [3] were 9.62 K, -12.03 K and 8.07 K, respectively.
